These results are taken from patent US9574189B2, “Enzymatic encoding methods for efficient synthesis of large libraries” (Nuevolution A/S, priority 2005, dated 2017).

This test concerns the target T1, human alpha-thrombin (Homo sapiens, UniProt P00734).
T1 construct: purchased Heamatologic Technologies Inc
Put plainly: Ki of released display molecule against thrombin, chromogenic substrate S-2238. The test is classed as biochemical. Conditions: display molecule released by UV cleavage; 5 min incubation at 22° C.; nonlinear regression of Vmax; 95% confidence interval 0-13 nM. Here is the method:
To determine the Ki of the released display molecule against the protease thrombin, human alpha-thrombin (Heamatologic Technologies Inc.) was diluted in buffer (0.015 units/μl) and the released display molecule was added. Following 5 minutes of incubation at 22° C. a chromogenic substrate (Chromogenix catalogue number S-2238) was added and the maximum turnover (Vmax) of the enzyme was determined in a by measuring the change in absorbance at 405 nm using a Versamax reader (Molecular Devices). This was repeated for different concentrations of the released display molecule and different concentrations of substrate. The Vmax values obtained were then fitted using nonlinear regression implemented in the Prism software (Graphpad) to obtain the Ki of the display molecule.

pKi: −log10 of the molar value.

One may read the pKi as −log10 of the Ki, conventionally taken in molar units.

Take `NC(=O)COc1ccc(Cl)cc1CNC(=O)[C@H]1CCCN1C(=O)[C@@H](N)C1CCCCC1`: the pKi is 8.28.
